Experimental data: patent US20020034767A1, “Compositions and methods for modulating the activity of G protein-coupled receptor kinases GRK5 and GRK6” (priority 1993, published 2002)
Where “and” joins values, the source holds several entries; their conditions need not be identical. Equal entries are not always repeated.

Columns and labels:
GRK6 = target: T1, GRK6 (Homo sapiens, UniProt P43250); test: GRK6 phosphorylation of rhodopsin; format: biochemical; conditions: for effect on GRK6 activity: in the presence of Mg2+; for IC50: purified GRK6, read-out: IC50 for inhibiting GRK6; for fold less effective as inhibitor of GRK6 compared to GRK5: GRK6 versus GRK5
T1 construct: The presence of the full length GRK6 cDNA within the genome of the recombinant baculovirus was confirmed; made in house; host or cells: Sf9 insect cells (baculovirus, pBacPAK1)

GRK5 [1] = target: T2, GRK5 (Homo sapiens, UniProt P34947); test: GRK5 phosphorylation of rhodopsin (receptor phosphorylation); format: biochemical; conditions: purified GRK5; read-out: IC50 for inhibiting GRK5
T2 construct: The GRK5 ORF was initially excised by restriction digestion of the full length clone pGRK5 using NaeI and SmaI; made in house; host or cells: Sf9 insect cells (baculovirus, pBacPAK1)

GRK5 [2] = target: T2, GRK5; test: GRK5 autophosphorylation; format: biochemical
GRK5 [3] = target: T2, GRK5; test: GRK5 phosphorylation of rhodopsin (receptor phosphorylation); format: biochemical; conditions: for reversal of heparin inhibition of GRK5: in presence of heparin
Protocol: Rod outer segments (ROS) were prepared in accordance with methods known to those skilled in the art. Rhodopsin kinase free membranes were prepared by suspending the ROS in 50 mM Tris-HCl, pH 8.0, 5 mM EDTA, 5M urea and sonicating. The urea treated ROS were washed several times by centrifugation and resuspended in 50 mM Tris-HCl, pH 7.5 at a protein concentration of ˜1 mg/ml. Phosphorylation reactions contained 5 μg of total protein from the Sf9 cell supernatants expressing either GRK5 or βARK, urea treated ROS (80 pmol rhodopsin), 20 mM Tris-HCl, pH 7.5, 2 mM EDTA, 6 mM MgCl2 and 0.1 mM [γ-^32P] ATP, in a total reaction volume of 30 μl. When the effect of G protein βγ subunits was assessed, the reactions also contained 0.25 mM dithiothreitol, 0.01% Lubrol and 62 mM NaCl with or without 100 nM βγ subunits. Reactions were incubated at 30° C. for 15 minutes and then stopped by the addition of 50 μl of SDS sample buffer. Samples were electrophoresed on a 10% homogeneous SDS polyacrylamide gel by the method of Laemmli which is well known to those skilled in the art. Gels were dried and autoradiographed at room temperature for 30-120 minutes. The rhodopsin bands in the gel were then cut and counted in a scintillation counter.

βARK = target: T3, βARK (Bos taurus, UniProt P21146); conditions: cited from earlier work
T3 sequence (P21146 1-689): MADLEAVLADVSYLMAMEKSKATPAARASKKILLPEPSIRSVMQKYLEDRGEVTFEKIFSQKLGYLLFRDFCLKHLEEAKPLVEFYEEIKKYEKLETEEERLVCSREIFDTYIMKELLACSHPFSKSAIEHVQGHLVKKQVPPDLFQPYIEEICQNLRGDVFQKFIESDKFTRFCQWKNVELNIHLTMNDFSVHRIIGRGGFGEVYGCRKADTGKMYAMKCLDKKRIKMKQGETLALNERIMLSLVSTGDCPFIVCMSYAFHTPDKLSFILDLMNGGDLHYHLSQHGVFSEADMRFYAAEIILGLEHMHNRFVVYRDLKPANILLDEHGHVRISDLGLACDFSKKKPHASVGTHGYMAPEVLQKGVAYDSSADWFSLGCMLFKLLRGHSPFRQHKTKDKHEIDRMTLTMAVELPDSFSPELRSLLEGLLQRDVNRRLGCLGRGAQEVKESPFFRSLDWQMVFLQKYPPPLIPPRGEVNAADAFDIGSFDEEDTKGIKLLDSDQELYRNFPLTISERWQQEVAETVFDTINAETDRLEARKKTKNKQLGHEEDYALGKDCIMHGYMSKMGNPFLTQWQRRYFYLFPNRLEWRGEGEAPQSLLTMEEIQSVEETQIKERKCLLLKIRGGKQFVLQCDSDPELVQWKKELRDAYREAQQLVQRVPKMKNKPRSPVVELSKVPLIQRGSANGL

casein kinase II = casein kinase II (Homo sapiens, UniProt P67870+P68400); conditions: cited from earlier work
rhodopsin kinase = target: T4, rhodopsin kinase (Bos taurus, UniProt P28327); conditions: cited from earlier work
T4 sequence (P28327 1-561): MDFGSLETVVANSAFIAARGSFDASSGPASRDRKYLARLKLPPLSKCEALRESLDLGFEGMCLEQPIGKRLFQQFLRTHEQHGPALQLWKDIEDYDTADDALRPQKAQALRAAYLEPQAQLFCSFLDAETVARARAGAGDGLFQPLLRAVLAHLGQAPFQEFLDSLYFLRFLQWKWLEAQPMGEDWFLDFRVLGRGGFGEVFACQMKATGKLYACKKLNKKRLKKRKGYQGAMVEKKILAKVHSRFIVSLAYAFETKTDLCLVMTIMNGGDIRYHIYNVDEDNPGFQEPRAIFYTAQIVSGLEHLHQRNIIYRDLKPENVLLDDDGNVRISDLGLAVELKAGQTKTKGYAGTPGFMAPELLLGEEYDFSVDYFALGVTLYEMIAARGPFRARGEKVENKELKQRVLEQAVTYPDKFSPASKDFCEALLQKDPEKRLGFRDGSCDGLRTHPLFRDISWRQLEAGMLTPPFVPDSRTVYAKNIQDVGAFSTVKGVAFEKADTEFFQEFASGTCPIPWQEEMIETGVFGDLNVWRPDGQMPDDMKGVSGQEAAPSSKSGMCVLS

T2 sequence (P34947 whole entry): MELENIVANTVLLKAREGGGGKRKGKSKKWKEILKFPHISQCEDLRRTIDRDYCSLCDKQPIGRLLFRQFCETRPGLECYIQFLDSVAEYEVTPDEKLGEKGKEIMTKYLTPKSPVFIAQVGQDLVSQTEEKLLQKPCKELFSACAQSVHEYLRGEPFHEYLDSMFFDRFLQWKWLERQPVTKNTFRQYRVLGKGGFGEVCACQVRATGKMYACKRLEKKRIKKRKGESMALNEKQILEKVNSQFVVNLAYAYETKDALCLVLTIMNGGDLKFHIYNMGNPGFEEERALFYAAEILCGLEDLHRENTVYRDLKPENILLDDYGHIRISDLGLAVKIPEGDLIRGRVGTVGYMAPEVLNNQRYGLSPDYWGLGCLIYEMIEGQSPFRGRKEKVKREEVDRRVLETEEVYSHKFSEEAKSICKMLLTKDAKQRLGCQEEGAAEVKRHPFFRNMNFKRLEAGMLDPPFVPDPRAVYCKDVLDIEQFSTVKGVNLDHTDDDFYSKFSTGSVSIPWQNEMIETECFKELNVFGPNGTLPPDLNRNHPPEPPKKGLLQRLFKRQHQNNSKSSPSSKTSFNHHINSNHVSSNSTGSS
casein kinase II, sequence (P68400 whole entry): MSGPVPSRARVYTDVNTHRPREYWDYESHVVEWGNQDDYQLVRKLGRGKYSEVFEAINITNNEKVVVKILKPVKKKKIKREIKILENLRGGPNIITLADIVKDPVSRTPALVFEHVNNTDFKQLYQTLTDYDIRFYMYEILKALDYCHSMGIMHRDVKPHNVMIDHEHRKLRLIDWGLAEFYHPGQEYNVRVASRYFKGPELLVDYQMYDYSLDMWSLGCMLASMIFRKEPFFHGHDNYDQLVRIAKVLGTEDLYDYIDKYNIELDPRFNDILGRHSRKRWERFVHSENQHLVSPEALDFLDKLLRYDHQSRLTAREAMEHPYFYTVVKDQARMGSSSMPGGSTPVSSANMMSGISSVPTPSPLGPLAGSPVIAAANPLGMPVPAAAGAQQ
casein kinase II, sequence (P67870 whole entry): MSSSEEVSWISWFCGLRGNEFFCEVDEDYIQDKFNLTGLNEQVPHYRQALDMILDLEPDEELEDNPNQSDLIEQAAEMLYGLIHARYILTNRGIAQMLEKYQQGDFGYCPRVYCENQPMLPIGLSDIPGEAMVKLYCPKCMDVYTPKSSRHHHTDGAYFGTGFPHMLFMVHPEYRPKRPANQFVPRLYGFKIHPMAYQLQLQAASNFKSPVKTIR
T1 sequence (P43250 whole entry): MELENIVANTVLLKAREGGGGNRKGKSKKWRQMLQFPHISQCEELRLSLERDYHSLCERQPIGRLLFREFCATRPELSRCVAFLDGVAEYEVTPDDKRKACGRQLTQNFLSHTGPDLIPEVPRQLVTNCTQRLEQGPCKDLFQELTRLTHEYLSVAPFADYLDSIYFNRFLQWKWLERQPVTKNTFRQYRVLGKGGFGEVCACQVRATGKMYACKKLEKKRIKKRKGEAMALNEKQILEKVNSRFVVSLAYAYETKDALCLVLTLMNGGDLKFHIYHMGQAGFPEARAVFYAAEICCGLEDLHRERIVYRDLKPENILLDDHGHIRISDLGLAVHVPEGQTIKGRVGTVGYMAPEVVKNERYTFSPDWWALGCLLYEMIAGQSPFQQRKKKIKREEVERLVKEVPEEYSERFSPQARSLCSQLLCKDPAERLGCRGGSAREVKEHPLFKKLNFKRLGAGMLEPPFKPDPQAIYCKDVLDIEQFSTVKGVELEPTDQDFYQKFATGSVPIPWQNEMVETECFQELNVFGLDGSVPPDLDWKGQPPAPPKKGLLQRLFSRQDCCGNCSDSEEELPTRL

For `[Ca+2]` [Ca^2+], the “effect on GRK6 activity” value (GRK6) was “inhibited”.

`CC1CNCCN1S(=O)(=O)c1cccc2cnccc12` (stereo not drawn) [H-7] showed an IC50 (GRK5 [1]) of roughly 170 µM.

With `Cl` [NaCl] the IC50 (GRK5 [2]) was roughly 70000 µM and the IC50 (GRK5 [3]; IC50 for inhibiting GRK5 (receptor phosphorylation), purified GRK5) was ~60000 µM and 58000 µM.

For `[Zn+2]` [Zn^2+], the “effect on GRK6 activity” value (GRK6) was “inhibited”.

In the case of `NCCCCNCCCN` [spermidine], the “inhibition of βARK” value (βARK) is given as “weak inhibitors”, the “enhancement of GRK6 activity” value (GRK6; optimal concentration range 0.1 to 0.5 mM) is given as roughly 1.4 fold and the “effect on casein kinase” value (casein kinase II) is given as “activators”. The “effect on rhodopsin kinase” value (rhodopsin kinase) was “activators”, the “reversal of heparin inhibition of GRK5” value (GRK5 [3]) was “effectively reversed” and the “activation of GRK5” value (GRK5 [3]; optimal concentrations) was roughly 1.5 fold.

For `NCCCNCCCCNCCCN` [spermine], the “inhibition of βARK” value (βARK) is listed as “weak inhibitors”, the “elevation of GRK6 phosphorylation of rhodopsin” value (GRK6; optimal concentration range 0.01 to 0.1 mM) is listed as roughly 1.5 fold and the “effect on casein kinase” value (casein kinase II) is listed as “activators”. The “effect on rhodopsin kinase” value (rhodopsin kinase) was “activators”, the “reversal of heparin inhibition of GRK5” value (GRK5 [3]) was “effectively reversed” and the “activation of GRK5” value (GRK5 [3]; optimal concentrations) was roughly 1.8 fold.

In the case of dextran sulfate, the IC50 (GRK6) is reported as 0.007 µM and the IC50 (GRK5 [1]) is reported as roughly 0.0006 µM.

For heparin, the IC50 (GRK6) is given as roughly 0.015 µM, the “inhibition of GRK5 autophosphorylation” value (GRK5 [2]; concentration of 10 μM) is given as “does not inhibit” and the IC50 (rhodopsin kinase) is given as roughly 200 µM. For the same compound, the IC50 (GRK5 [1]) was roughly 0.001 µM.

For polyaspartic acid, the “fold less effective as inhibitor of GRK6 compared to GRK5” value (GRK6) was roughly 6 fold and the IC50 (GRK6) was 0.487 µM.

In the case of polyglutamic acid, the “fold less effective as inhibitor of GRK6 compared to GRK5” value (GRK6) is reported as roughly 16 fold and the IC50 (GRK6) is reported as 0.4 µM.

For polylysine, the “inhibition of βARK” value (βARK) is given as “weak inhibitors”, the “increase in GRK6 phosphorylation” value (GRK6; optimal range 1 to 10 μM) is given as roughly 2.7 fold and the “effect on casein kinase” value (casein kinase II) is given as “activators”. For the same compound, the “effect on rhodopsin kinase” value (rhodopsin kinase) was “activators”, the “reversal of heparin inhibition of GRK5” value (GRK5 [3]) was “effectively reversed” and the “activation of GRK5” value (GRK5 [3]; optimal concentration of 10 μM) was roughly 2.6 fold.
